{
  "source": "patent US20030035834A1",
  "about": "“Sustained release verapamil pharmaceutical composition free of food effect and a method for alleviating food effect in drug release” (priority 2000, published 2003)",
  "origin": "cited, not measured here",
  "note": "Read-outs that look alike come from different tables or passages of the source.",
  "data": [
    {"smiles": "COc1ccc2c3c1O[C@H]1C(=O)CC[C@@]4(O)[C@@H](C2)N(C)CC[C@]314", "note": "[oxycodone]", "values": [
      {"measurement": "difference in availability, fasted vs fed", "setting": "extended release tablets", "result": "no difference"},
      {"measurement": "difference in availability, fasted vs fed", "setting": "immediate release aqueous solution", "result": "significant difference"}
    ]}
  ]
}
